The results in this text go back to ChEMBL document CHEMBL5058564, “EUbOPEN Chemogenomics Library 2 (Incucyte)” (2022).

Molecules are shown by their SMILES.

What all share (type): toxicity, cell-based
The test system of one data set is HEK-293T. The data set is described as follows: Incucyte cell viability with HEK293T. The conditions noted are these: human, 10 µM, compound concentration 10 uM.
A further data set deals with Fibroblast. The data set is described as follows: Incucyte cell viability with human fibroblast. The conditions noted are these: 10 µM, compound concentration 10 uM.
The next data set has as its system U2OS. The data set is described as follows: Incucyte cell viability with U2OS. The conditions noted are these: human, 10 µM, compound concentration 10 uM.
Where [1] appears, read: 0 h, replicate number 1, timepoint 0 hours.
The mark [2] stands for this setting: 0 h, replicate number 2, timepoint 0 hours.
Where [3] appears, read: 12 h, replicate number 1, timepoint 12 hours.
Where [4] appears, read: 12 h, replicate number 2, timepoint 12 hours.
Where [5] appears, read: 18 h, replicate number 1, timepoint 18 hours.
Where [6] appears, read: 18 h, replicate number 2, timepoint 18 hours.
Where [7] appears, read: 24 h, replicate number 1, timepoint 24 hours.
Setting [8] is: 24 h, replicate number 2, timepoint 24 hours.
The mark [9] stands for this setting: 6 h, replicate number 1, timepoint 6 hours.
Setting [10] is: 6 h, replicate number 2, timepoint 6 hours.
Note: unitless GR value; below 1 slowed growth and below 0 cell loss.

`COc1cc(NC(=O)CCN2CCC(OC(=O)Nc3ccccc3-c3ccccc3)CC2)c(Cl)cc1CNC[C@H](O)c1ccc(O)c2[nH]c(=O)ccc12` [BATEFENTEROL]: the “Growth Rate” value in the data set on HEK-293T (setting [1]) is -0.23; in the data set on HEK-293T (setting [2]), 0.01; with HEK-293T (setting [3]) it was 0.88; with HEK-293T (setting [4]), 0.79; in the data set with HEK-293T (setting [5]) it was 0.8; in the data set with HEK-293T (setting [6]) it was 1. For the same molecule, the “Growth Rate” value in the data set on Fibroblast (setting [1]) was -0.65; in the data set on Fibroblast (setting [2]) it was 0.38; with U2OS (setting [2]), -1; in the data set on U2OS (setting [5]) it was 0.93; in the data set with U2OS (setting [6]), 0.95; with U2OS (setting [7]), 1. In addition, in the data set on U2OS (setting [8]), the “Growth Rate” value is 0.9.

For the molecule `CC(C)c1noc(N2CCC(COc3ccc(-c4ccc(S(C)(=O)=O)cc4)nc3)CC2)n1` [GSK-1292263], the “Growth Rate” value in the data set with HEK-293T (setting [9]) was -0.15; in the data set with HEK-293T (setting [10]), -0.07; with HEK-293T (setting [3]), 0.09; with HEK-293T (setting [4]), 0.17; in the data set on HEK-293T (setting [5]), 0.14; in the data set on HEK-293T (setting [6]) it was 0.41. Also, the “Growth Rate” value in the data set with HEK-293T (setting [7]) is on record as 0.22; with HEK-293T (setting [8]) it was 0.55; in the data set on Fibroblast (setting [1]) it was -0.57; in the data set with Fibroblast (setting [2]) it was 0.61; in the data set with Fibroblast (setting [10]), -0.06; in the data set with Fibroblast (setting [4]) it was 0.41. The “Growth Rate” value is on record as 0.53 with Fibroblast (setting [5]); 0.76 in the data set with Fibroblast (setting [6]); -0.92 with U2OS (setting [1]); -0.96 in the data set on U2OS (setting [2]); 0.96 with U2OS (setting [4]); 0.91 in the data set on U2OS (setting [5]). Moreover, in the data set on U2OS (setting [6]), the “Growth Rate” value is 0.85.

On to `CC(C)[C@H](C(=O)Nc1ccc(C(=O)NO)cc1)c1ccccc1` [AR-42], for which the “Growth Rate” value is 0.33 in the data set on HEK-293T (setting [1]); 0 in the data set with HEK-293T (setting [2]); 0.65 in the data set with HEK-293T (setting [3]); 0.04 in the data set on HEK-293T (setting [4]); 0.28 in the data set on HEK-293T (setting [5]); 0.18 in the data set on HEK-293T (setting [7]). Also, the “Growth Rate” value in the data set with HEK-293T (setting [8]) is listed as 0.23; with Fibroblast (setting [1]) it was 0.24; with Fibroblast (setting [2]), 0; with U2OS (setting [1]) it was -0.37; in the data set on U2OS (setting [2]), 0.37; in the data set with U2OS (setting [9]), 0.34. The “Growth Rate” value in the data set with U2OS (setting [10]) stood at 0.99; with U2OS (setting [3]), 0.5; with U2OS (setting [4]), 0.71; in the data set on U2OS (setting [5]), 0.3; in the data set on U2OS (setting [6]), 0.56; with U2OS (setting [7]), 0.39. In the data set on U2OS (setting [8]), the “Growth Rate” value is given as 0.42.

For the molecule `O=C(N[C@@H]1CC[C@@H](c2cccc(F)c2F)CN(CC(F)(F)F)C1=O)N1CCC(n2c(=O)[nH]c3ncccc32)CC1` [TELCAGEPANT], the “Growth Rate” value in the data set on HEK-293T (setting [9]) is 0.32; in the data set on HEK-293T (setting [10]), 0.77; in the data set with HEK-293T (setting [3]), 0.66; in the data set with HEK-293T (setting [4]), 0.94; with HEK-293T (setting [5]) it was 0.54; with HEK-293T (setting [6]) it was 0.98. Moreover, the “Growth Rate” value with HEK-293T (setting [7]) was 0.81; in the data set with Fibroblast (setting [2]), 0.95; with Fibroblast (setting [9]) it was 0.18; with Fibroblast (setting [10]) it was -0.28; in the data set with Fibroblast (setting [3]), 0.01; with Fibroblast (setting [4]), 0.39. In addition, the “Growth Rate” value in the data set with Fibroblast (setting [5]) is on record as 0.11; in the data set with Fibroblast (setting [6]) it was 0.66; with Fibroblast (setting [7]), 0.22; in the data set with Fibroblast (setting [8]) it was 0.72; with U2OS (setting [2]), -1; with U2OS (setting [9]), 0.8. The “Growth Rate” value in the data set with U2OS (setting [6]) was 0.98; with U2OS (setting [7]) it was 0.86; with U2OS (setting [8]) it was 0.95.
